Tests used:
rat 6-OHDA model of PD = test: Neurorestoration study in 6-OHDA model of PD in rats; type: in vivo
ER stressed SCG neurons = test: Survival of tunicamycin-treated (ER stressed) SCG sympathetic neurons after microinjection; type: cell-based, mice; details: for survived neurons as % compared to neurons grown in the presence of NGF: microinjected into cytoplasm, CDNF (400); for Fold change of survived neurons compared to neurons injected with PBS: data of Table 1 divided by values of PBS
In short: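 Newborn mouse SCG neurons grown 5-6 days with 30 ng/ml NGF, then microinjected with CDNF (FL or C-terminal) plasmids (10 ng/ul, EGFP reporter) or proteins (200 ng/ul, Dextran Texas Red). Tunicamycin (2 μM) added next day. Fluorescent survivors counted blindly after 3 days as % of initial; compared with vector or PBS (ANOVA/Dunnett).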

dopamine neurons = test: Survival of TH-positive dopamine neurons in dissociated midbrain floor cultures; type: cell-based, mouse; details: for survived neurons as % compared to neurons grown in the presence of GDNF / protection of dopaminergic neurons in culture (result in words): 5 days; for protection of dopaminergic neurons in culture (result in words): added to the culture medium, TH-positive neurons counted; for Fold change of survived neurons compared to neurons grown without growth factors: data of Table 3 divided by values of no factor
In short: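 Dissociated E13.5 NMRI mouse midbrain floor neurons grown five days in DMEM/F12 with N2, with polypeptides at a range of concentrations, GDNF (100 ng/ml), or nothing. TH-immunopositive neurons were counted by imaging. Values are a percentage of GDNF-maintained TH-positive neurons, as mean ± SEM from at least three independent cultures.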

E14 dopamine neurons = test: Internalization experiment on dopaminergic neurons; type: cell-based, Mouse; details: 30,000 cpm of iodinated protein, 37° C., 2 hr, acid wash
Experimental: Mouse E13.5 dopamine neurons grown on the 24 well plate in culture were incubated with 30,000 cpm of iodinated CDNF or C-CDNF per well at 37° C. 2 hr. The cells were transferred to ice and washed once with 0.5 ml of the ice cold media. Then cells were transferred to Eppendorf tubes and washed at 4° C. once with 0.2M acetic acid, 0.5M NaCl, pH 2.8. After centrifugation at 1000 g for 10 min cells were dissolved in 0.5 ml of 0.5 N NaOH and counted on the gamma counter.

[1] = test system: mouse beta cell proliferation; test: Beta cell proliferation assay; type: cell-based; details: mouse islets cultured in vitro for 5 days
Experimental: Islets from female, virgin 8 weeks old C57bl6Rcc mice were isolated. Islets were recovered o/n in growth medium and the next day equal numbers of islets/well (70/well) were treated for 5 days with placental lactogen (PL 500 ng/ml), C-MANF, or MANF. Half of the medium was changed daily to fresh medium with growth factors. Edu, a nucleoside analog alternatively to BrdU (Click-iT® Edu proliferation kit, Invitrogen) was added 48 hrs prior to islet harvesting. Islets were broken with trypsin and centrifuged onto glass slides in cytocentrifuge. Cells were fixed after cytospins and proliferating cells stained with Click-iT AlexaFluor azide color reagent, followed by insulin staining (guinea-pig 1:200, Abcam, Cambridge, UK) o/n at +4° C. to detect beta cells. Cells were washed and stained with secondary antibodies conjugated with Alexa Fluor® 488 (1:400, Molecular Probes, Life Technologies, CA, USA). […] Twelve images (10× magnification) were acquired with Fluorescence Zeiss Axiolmager M2 482 epifluorescence microscope equipped with 40×/Plan-Apochromat/0.95 Corr M27 and 63×/Plan-Apochromat/1.40 Oil/M27 and 483 AxioCam HRm camera using AxioVision4 software and analysed by Image Pro Plus software (Media Cybernetics, Bethesda, MD, USA) to quantify number of DAPI-positive nuclei. The relative numbers of proliferating beta cells were quantified and compared to wells of three to five repeats/treatment.

[2] = rat, in vivo, sc
Experimental: CDNF, C-CDNF and C-MANF were iodinated with ^125I-Na using the lactoperoxidase method. The protein in question was dissolved in 30 μl of 0.25 M phosphate buffer, pH 7.5, and mixed with ^125I-Na (1 mCi/2.8 μl; 1 mCi=37 mBq; GE Healthcare). The reaction was started by adding lactoperoxidase 10 μl of 50 μg/ml and 0.05% H2O2. The mixture was incubated at room temperature for 20 min and the reaction was stopped by adding 3 volumes of 0.1 M phosphate buffer, pH 7.5, containing 0.1 M NaI, 0.42 M NaCl, and then 25 μl of 2.5% BSA was added. Free iodine and iodinated protein were separated by gel filtration on Sephadex G-25 columns (PM10; GE Healthcare). For column equilibrium and elution, 0.1 M phosphate buffer, pH 7.5, with 1% BSA was used. The iodinated growth factors were sometimes concentrated by using YM-10 Centricon columns (Millipore). The specific activity of ^125I-labeled CDNF, C-CDNF and C-MANF was measured on the Wizard 3 1480 Automatic Gamma Counter (Perkin Elmer, Wallac) and was about 10^8 cpm/μg protein. The labelled protein were kept at 4° C. and used within 3 weeks after labelling.
^125I-CDNF, ^125I C-CDNF or ^125I C-MANF (all proteins at 10^6 cpm in 10 μl) were injected subcutaneously to adult male Wistar rats. […] Radioactivity was analyzed in different brain regions by gamma counter. […] The differences between groups were analyzed ANOVA followed by Tukey-Kramers post hoc test.

CKGC [MANF4, reference compound]
efficacy on amphetamine-induced rotations (rat 6-OHDA model of PD; infused into the striatum starting 2 weeks after 6-OHDA lesioning, rotations up to 12 weeks post lesioning): not effective

TLDLASVDLRKMRVAELKQILHSWGEECRACAE (listed as Homo sapiens) [pep15]
survived neurons as % compared to neurons grown in the presence of NGF (ER stressed SCG neurons; Table 1B (FIG. 16), exp1, tunicamycin 2 μM, counted after 3 days): 70.17 % NGF | survived neurons as % compared to neurons grown in the presence of NGF (ER stressed SCG neurons; Table 1B (FIG. 16), exp2, tunicamycin 2 μM, counted after 3 days): 61.81 % NGF | survived neurons as % compared to neurons grown in the presence of NGF (ER stressed SCG neurons; Table 1B (FIG. 16), exp3, tunicamycin 2 μM, counted after 3 days): 71.42 % NGF | rescue of ER stressed SCG neurons (result in words) (ER stressed SCG neurons; protein or peptide microinjected into the cytoplasm, tunicamycin 2 μM, living fluorescent neurons counted after 3 days): rescue | survived neurons as % compared to neurons grown in the presence of GDNF (dopamine neurons; Table 3B (FIG. 17), AVG, 1 ng/ml): 73.72 % GDNF | survived neurons as % compared to neurons grown in the presence of GDNF (dopamine neurons; Table 3B (FIG. 17), AVG, 10 ng/ml): 87.03 % GDNF | survived neurons as % compared to neurons grown in the presence of GDNF (dopamine neurons; Table 3B (FIG. 17), AVG, 100 ng/ml): 93.53 % GDNF | survived neurons as % compared to neurons grown in the presence of GDNF (dopamine neurons; Table 3B (FIG. 17), AVG, 1000 ng/ml): 86.15 % GDNF | protection of dopaminergic neurons in culture (result in words) (dopamine neurons): best protective effect | protection against 6-OHDA-induced impairment in motor imbalance (amphetamine-induced rotational behavior) (rat 6-OHDA model of PD; subcutaneous injections 50 μg twice a week for 4 weeks starting two weeks post-lesion, p<0.001 vs vehicle): effective

VDLRKMRVAELKQILHSWGEECRACAEKTDYVNLIQELAPKYAATHPKTEL (listed as Homo sapiens) [pep5]
survived neurons as % compared to neurons grown in the presence of NGF (ER stressed SCG neurons; Table 1A (FIG. 14), AVG of exp1-2, tunicamycin 2 μM): 81.78 % NGF | survived neurons as % compared to neurons grown in the presence of NGF (ER stressed SCG neurons; Table 1A (FIG. 14), exp1, tunicamycin 2 μM, counted after 3 days): 86.36 % NGF | survived neurons as % compared to neurons grown in the presence of NGF (ER stressed SCG neurons; Table 1A (FIG. 14), exp2, tunicamycin 2 μM, counted after 3 days): 77.19 % NGF | Fold change of survived neurons compared to neurons injected with PBS (ER stressed SCG neurons; Table 2, AVG): 2.23 Fold to PBS | Fold change of survived neurons compared to neurons injected with PBS (ER stressed SCG neurons; Table 2, exp1): 2.52 Fold to PBS | Fold change of survived neurons compared to neurons injected with PBS (ER stressed SCG neurons; Table 2, exp2): 1.94 Fold to PBS | survived neurons as % compared to neurons grown in the presence of GDNF (dopamine neurons; Table 3A (FIG. 15), AVG, 1 ng/ml): 64.92 % GDNF | survived neurons as % compared to neurons grown in the presence of GDNF (dopamine neurons; Table 3A (FIG. 15), AVG, 10 ng/ml): 76.19 % GDNF | survived neurons as % compared to neurons grown in the presence of GDNF (dopamine neurons; Table 3A (FIG. 15), AVG, 100 ng/ml): 73.84 % GDNF | survived neurons as % compared to neurons grown in the presence of GDNF (dopamine neurons; Table 3A (FIG. 15), AVG, 1000 ng/ml): 65.13 % GDNF | survived neurons as % compared to neurons grown in the presence of GDNF (dopamine neurons; Table 3A (FIG. 15), exp1, 1 ng/ml): 65.24 % GDNF | survived neurons as % compared to neurons grown in the presence of GDNF (dopamine neurons; Table 3A (FIG. 15), exp1, 10 ng/ml): 61.71 % GDNF | survived neurons as % compared to neurons grown in the presence of GDNF (dopamine neurons; Table 3A (FIG. 15), exp1, 100 ng/ml): 59.82 % GDNF | survived neurons as % compared to neurons grown in the presence of GDNF (dopamine neurons; Table 3A (FIG. 15), exp1, 1000 ng/ml): 59.11 % GDNF | survived neurons as % compared to neurons grown in the presence of GDNF (dopamine neurons; Table 3A (FIG. 15), exp2, 1 ng/ml): 59.23 % GDNF | survived neurons as % compared to neurons grown in the presence of GDNF (dopamine neurons; Table 3A (FIG. 15), exp2, 10 ng/ml): 82.61 % GDNF | survived neurons as % compared to neurons grown in the presence of GDNF (dopamine neurons; Table 3A (FIG. 15), exp2, 100 ng/ml): 75.53 % GDNF | survived neurons as % compared to neurons grown in the presence of GDNF (dopamine neurons; Table 3A (FIG. 15), exp2, 1000 ng/ml): 58.84 % GDNF | survived neurons as % compared to neurons grown in the presence of GDNF (dopamine neurons; Table 3A (FIG. 15), exp3, 1 ng/ml): 70.31 % GDNF | survived neurons as % compared to neurons grown in the presence of GDNF (dopamine neurons; Table 3A (FIG. 15), exp3, 10 ng/ml): 84.24 % GDNF | survived neurons as % compared to neurons grown in the presence of GDNF (dopamine neurons; Table 3A (FIG. 15), exp3, 100 ng/ml): 86.17 % GDNF | survived neurons as % compared to neurons grown in the presence of GDNF (dopamine neurons; Table 3A (FIG. 15), exp3, 1000 ng/ml): 77.44 % GDNF | Fold change of survived neurons compared to neurons grown without growth factors (dopamine neurons; Table 4, AVG, 1 ng/ml): 1.06 fold | Fold change of survived neurons compared to neurons grown without growth factors (dopamine neurons; Table 4, AVG, 10 ng/ml): 1.23 fold | Fold change of survived neurons compared to neurons grown without growth factors (dopamine neurons; Table 4, AVG, 100 ng/ml): 1.19 fold | Fold change of survived neurons compared to neurons grown without growth factors (dopamine neurons; Table 4, AVG, 1000 ng/ml): 1.05 fold | Fold change of survived neurons compared to neurons grown without growth factors (dopamine neurons; Table 4, exp1, 1 ng/ml): 1.14 fold | Fold change of survived neurons compared to neurons grown without growth factors (dopamine neurons; Table 4, exp1, 10 ng/ml): 1.08 fold | Fold change of survived neurons compared to neurons grown without growth factors (dopamine neurons; Table 4, exp1, 100 ng/ml): 1.05 fold | Fold change of survived neurons compared to neurons grown without growth factors (dopamine neurons; Table 4, exp1, 1000 ng/ml): 1.03 fold | Fold change of survived neurons compared to neurons grown without growth factors (dopamine neurons; Table 4, exp2, 1 ng/ml): 0.94 fold | Fold change of survived neurons compared to neurons grown without growth factors (dopamine neurons; Table 4, exp2, 10 ng/ml): 1.31 fold | Fold change of survived neurons compared to neurons grown without growth factors (dopamine neurons; Table 4, exp2, 100 ng/ml): 1.20 fold | Fold change of survived neurons compared to neurons grown without growth factors (dopamine neurons; Table 4, exp2, 1000 ng/ml): 0.93 fold | Fold change of survived neurons compared to neurons grown without growth factors (dopamine neurons; Table 4, exp3, 1 ng/ml): 1.09 fold | Fold change of survived neurons compared to neurons grown without growth factors (dopamine neurons; Table 4, exp3, 10 ng/ml): 1.30 fold | Fold change of survived neurons compared to neurons grown without growth factors (dopamine neurons; Table 4, exp3, 100 ng/ml): 1.33 fold | Fold change of survived neurons compared to neurons grown without growth factors (dopamine neurons; Table 4, exp3, 1000 ng/ml): 1.20 fold

^125I-CDNF: CDNF iodinated with 125I-Na using the lactoperoxidase method
internalization into dopamine neurons (radioactivity inside the cells) (E14 dopamine neurons): but not ^125I-CDNF is efficiently internalized

B1: KYDKQIDLSTVDLKKLRVKELKKILDDWGETCKGCAEKSDYIRKINELMPKYAPKAASARTDL (protein, listed as Homo sapiens)
chain: KYDKQIDLSTVDLKKLRVKELKKILDDWGETCKGCAEKSDYIRKINELMPKYAPKAASARTDL
protection of dopaminergic neurons in culture (result in words) (dopamine neurons): protects | protection of dopaminergic neurons in culture (result in words) (dopamine neurons; listed as C-terminal MANF fragment): potently protected | mouse beta cell proliferation (incorporation of Click EdU) [1]: stimulates | blood-brain-barrier penetration [2]: capable of penetrating
